Results on two compounds are retold here after US20070172436A1 (priority 2006, published 2007).

The conditions of data set [1]: co-pending application Ser. No. 11/242,306; cited from earlier work.
A short description of data set [2]: Solubilization of ascorbic acid in propylene glycol at room temperature, with or without urea. Type of data set: physicochemical. To be noted: 7.0% ascorbic acid, 5.0% urea, 88.0% propylene glycol, stirring about 16 hours. As for the experimental part: The solubilization process was carried out at room temperature.
The two sets of experiments (EXAMPLE 5 and EXAMPLE 6) were carried out side by side for comparison.

Data set [3] is described as follows: Solubilization of ascorbic acid in absolute ethanol at room temperature, with or without urea. The conditions noted are these: 2.00% urea, 95.50% ethanol, stirring about 16 hours.
Method: The solubilization process was conducted at room temperature.
The mixture was kept at room temperature, while stirring until dissolved. Vitamin E acetate was added to the mixture. Vitamin E acetate was solubilized in the mixture.

Each structure is given as a SMILES string. Some results are limits rather than exact numbers.

Regarding `O=C1O[C@H]([C@@H](O)CO)C(O)=C1O` [ascorbic acid, L-ascorbic acid], the “concentration of dissolved ascorbic acid in nonaqueous alcohol solvents with urea and/or urea derivatives” value in data set [1] is no more than 28 % by weight.

For `NC(N)=O` [urea, Urea], the “dissolution in propylene glycol” value in data set [2] is “completely dissolved”. Further, in data set [3], the “dissolution in absolute ethanol” value is listed as “completely dissolved”.
